Measurements as given in patent US5710018A, “Mammalian influx peptide transporter” (Eli Lilly and Company, priority 1995, dated 1998).
Where a SMILES comes first, the peptide text is derived from it.

Assays:
control CHO-K1 cells = experiment: [14C]cephalexin uptake by control CHO-K1 cells transfected with plasmid pRc/RSV; type: in vitro ADME, Chinese hamster; conditions: Gly-L-Pro coincubation
[1] = target: T1, influx peptide transporter (Homo sapiens, UniProt Q12864); conditions: Clone 9; 50 mM Gly-L-Pro
T1 sequence (Q12864 23-832 K115E/E734D/E739A): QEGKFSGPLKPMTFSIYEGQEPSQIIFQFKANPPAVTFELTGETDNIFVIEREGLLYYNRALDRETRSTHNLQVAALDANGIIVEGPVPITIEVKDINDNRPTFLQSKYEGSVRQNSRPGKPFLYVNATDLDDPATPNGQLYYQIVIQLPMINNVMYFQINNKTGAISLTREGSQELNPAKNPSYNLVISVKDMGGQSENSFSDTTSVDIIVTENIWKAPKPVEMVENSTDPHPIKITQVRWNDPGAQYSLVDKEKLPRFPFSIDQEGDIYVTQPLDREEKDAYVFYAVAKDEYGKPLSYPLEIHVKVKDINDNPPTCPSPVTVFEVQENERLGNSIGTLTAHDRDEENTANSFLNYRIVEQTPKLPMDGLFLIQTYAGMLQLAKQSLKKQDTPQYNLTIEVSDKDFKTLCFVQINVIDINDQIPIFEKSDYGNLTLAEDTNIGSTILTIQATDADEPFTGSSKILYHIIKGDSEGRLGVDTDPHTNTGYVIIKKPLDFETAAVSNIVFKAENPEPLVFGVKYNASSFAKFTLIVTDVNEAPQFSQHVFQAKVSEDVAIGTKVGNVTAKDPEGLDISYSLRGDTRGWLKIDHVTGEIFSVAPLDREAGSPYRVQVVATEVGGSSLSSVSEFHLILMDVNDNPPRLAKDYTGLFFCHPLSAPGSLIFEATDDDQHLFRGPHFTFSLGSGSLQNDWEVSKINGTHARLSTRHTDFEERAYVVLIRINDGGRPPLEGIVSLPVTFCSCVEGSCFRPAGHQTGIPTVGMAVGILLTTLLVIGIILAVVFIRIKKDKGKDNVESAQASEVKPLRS
Description: Chinese hamster ovary cells (CHO-K1, ATCC CCL 61) were transfected with plasmid pPSJ179 using a calcium precipitation protocol described in the Stratagene mammalian transfection kit (Stratagene Catalog #200285). […] The calcium precipitation protocol transfection method was carried out as follows. Subconfluent CHO-K1 cells (100 mm culture dish, 1-day post plating) were incubated for 20 minutes at 37° C. with 20 μg of a calcium-precipitated DNA sample. The DNA sample was either plasmid pPSJ179 or, as control, plasmid pRc/RSV. Subsequently, the cells were grown for 3 days in F12 medium containing 10% fetal bovine serum (Hyclone Laboratories Inc., Logan, Utah 84321). Afterwards, the medium was replaced with growth medium containing the selection agent, G-418 sulfate at 300 μg/ml (Gibco, Grand Island, N.Y.) and cells were grown in a 3% CO2 incubator at 37° C. for 13 days. Colonies which were selected for further study were grown for selected time periods in the selection medium at 37° C. in a 5% CO2 incubator. Transfectants were evaluated for expression of the influx peptide transporter using an enzyme linked immunosorbent assay (ELISA) and monoclonal antibody reactive with the influx peptide transporter.
The transfected CHO-K1 cells (~0.5 to 1×10^5 cells per well) were grown for 3 days in a Costar 24-well plate as described above. […]

SMILES: NCC(=O)N1CCC[C@H]1C(=O)O [Gly-L-Pro] (H-Gly-Pro-OH)
- inhibition of transport of 1 mM [14C]cephalexin (control CHO-K1 cells): not inhibited
- inhibition of uptake of 1 mM cephalexin [1]: inhibited
